Assay [1] addresses T1, Nuclear factor erythroid 2-related factor 2 (Homo sapiens) (UniProt Q16236).
T1 sequence (whole entry): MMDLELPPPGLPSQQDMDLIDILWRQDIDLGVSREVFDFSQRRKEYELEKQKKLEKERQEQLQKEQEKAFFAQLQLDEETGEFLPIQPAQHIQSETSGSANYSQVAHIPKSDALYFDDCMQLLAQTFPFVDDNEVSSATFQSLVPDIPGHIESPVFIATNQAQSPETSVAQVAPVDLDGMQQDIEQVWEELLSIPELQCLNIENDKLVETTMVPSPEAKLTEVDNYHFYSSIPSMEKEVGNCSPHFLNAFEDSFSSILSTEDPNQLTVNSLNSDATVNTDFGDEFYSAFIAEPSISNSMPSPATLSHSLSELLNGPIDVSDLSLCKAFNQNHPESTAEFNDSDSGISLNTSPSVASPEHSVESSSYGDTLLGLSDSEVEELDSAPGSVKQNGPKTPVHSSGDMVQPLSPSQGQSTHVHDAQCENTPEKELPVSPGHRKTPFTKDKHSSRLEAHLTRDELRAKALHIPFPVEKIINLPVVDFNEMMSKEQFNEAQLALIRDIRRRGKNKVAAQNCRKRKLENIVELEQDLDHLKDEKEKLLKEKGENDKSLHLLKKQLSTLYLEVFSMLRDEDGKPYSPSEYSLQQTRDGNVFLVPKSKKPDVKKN
The experiment in a line: Activation of Nrf2 transcriptional activity in human HaCaT-ARE-Luc cells at 1 to 25 uM incubated for 6 hrs by luciferase activity assay. Type of assay: cell-based. The note with it: filed as activator, dose 1-25 µM.

For assay [2], the system named is HaCaT. Kind of assay: Inhibition of TBHP-induced ROS production in human HaCaT cells assessed as reduction on intracellular ROS level at 25 uM pretreated for 30 mins followed by TBHP stimulation and measured after 3 hrs by DCFH2-DA staining analysis. It is filed as functional, cell-based. The note with it: time 3.5 hrs.
The test system of assay [3] is HaCaT. The experiment in a line: Inhibition of TBHP-induced ROS production in human HaCaT cells assessed as reduction on intracellular ROS level at 1 to 25 uM pretreated for 30 mins followed by TBHP stimulation and measured after 3 hrs by DCFH2-DA staining analysis. It is filed as functional, cell-based. The note with it: dose 1-25 µM, time 3.5 hrs, DDE = dose-dependent effect.

Assay [4] addresses T1, Nuclear factor erythroid 2-related factor 2 (Homo sapiens). The experiment in a line: Activation of Nrf2 transcriptional activity in human HaCaT-ARE-Luc cells at 25 uM incubated for 6 hrs by luciferase activity assay relative to control. It is filed as cell-based. As to conditions: filed as activator.
The target is the same in assay [5]. The experiment in a line: Activation of Nrf2 transcriptional activity in human HaCaT-ARE-Luc cells at 1 uM incubated for 6 hrs by luciferase activity assay relative to control. Type of assay: cell-based.
For assay [6] the target is unchanged. The experiment in a line: Activation of Nrf2 transcriptional activity in human HaCaT-ARE-Luc cells at 10 uM incubated for 6 hrs by luciferase activity assay relative to control. The note with it: filed as activator. It is filed as cell-based.

Active and inactive are the calls of the source. The calls are words filed in the database; no cut-off is given here.

For `C=C(C)[C@@H]1CCC(C)=C[C@H]1c1c(O)cc(CCCCC)cc1O`, the result in assay [1] was Active.
Turning to `C=C1CC[C@@H](C(=C)C)[C@H](c2c(O)cc(CCCCC)cc2O)[C@H]1O`, in the assay on HaCaT [2], the inhibition result is “Active”. The inhibition entry with HaCaT [3] is “Dde”. Moreover, the values for the Activity in assay [4], in assay [5] and in assay [6] were 202%, 20% and 144%, respectively.
